This note sets out measurements from patent US20180369210A1, “METHODS AND COMPOSITIONS FOR TREATING LYSOSOMAL STORAGE DISORDERS” (Lysosomal Therapeutics Inc., priority 2015, published 2018).

For the assay, the target named is T1, acid ceramidase (Homo sapiens, UniProt Q13510).
T1 sequence (Q13510 22-395): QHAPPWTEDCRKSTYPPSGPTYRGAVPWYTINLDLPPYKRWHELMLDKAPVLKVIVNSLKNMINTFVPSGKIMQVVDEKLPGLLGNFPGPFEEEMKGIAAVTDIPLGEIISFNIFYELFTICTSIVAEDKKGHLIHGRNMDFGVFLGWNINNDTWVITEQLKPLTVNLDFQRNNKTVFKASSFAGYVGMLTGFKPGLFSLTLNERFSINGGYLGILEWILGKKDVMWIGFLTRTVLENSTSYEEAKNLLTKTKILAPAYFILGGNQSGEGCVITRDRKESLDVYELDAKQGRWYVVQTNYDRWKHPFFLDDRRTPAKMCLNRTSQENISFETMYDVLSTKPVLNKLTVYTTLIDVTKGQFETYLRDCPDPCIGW
The assay is described as follows: Acid ceramidase fluorescent intensity assay with fluorogenic substrate Rbm 14-12. It is filed as biochemical. Particulars: cell lysates enriched with acid ceramidase; 1 hour preincubation; substrate Rbm 14-12 6.3 μM; pH 4.5; room temperature, 1 or two hours; read-out: average IC50 value for the 1 and 2 hour time points, inhibition of acid ceramidase activity. As for the experimental part:
Inhibition of acid ceramidase activity by compound 25 of Table 2 was evaluated in a fluorescent intensity assay using a fluorogenic substrate Rbm 14-12 […]. Compound 25 was incubated with cell lysates enriched with acid ceramidase for 1 hour in an assay buffer containing 50 mM NaOAc and 100 mM NaCl at pH 4.5. The reaction was initiated by the addition of the substrate at a final concentration of 6.3 μM and the mixture was incubated at room temperature for 1 or two hours. At the appropriate time, the reaction was quenched by the addition of methanol and treated with NaIO4 (fresh 2.5 mg/ml solution was made in 100 mM glycine/NaOH buffer, pH 10.6), followed by incubation for 1 hour at room temperature. Fluorescent intensity was measured using a plate reader at ex 355 nm and em 460 nm.

The term IC50 denotes the concentration that gives 50% inhibition. Consider `O=C(NCCCCc1ccccc1)n1c(=O)oc2cc(-c3ccc(F)cc3)ccc21` [Compound 25, 6-(4-fluorophenyl)-2-oxo-N-(4-phenylbutyl)-1,3-benzoxazole-3-carboxamide], for which the 50% inhibitory concentration (IC50) fell in the range of 250 to 500 nM.
